Measured values taken from patent publication US20190216848A1, “New Use of Product for Skin Treatment” (BioCool AB, priority 2016, published 2019).
Entries after “also recorded” stand apart in the source; their conditions may differ. One block for each compound: values may come before it.

How the values were obtained:
[1] = tested on: patients with acne vulgaris; details: references (9), (10), (12); cited from earlier work
[2] = Duration of effectiveness of the prepared aqueous solution; assay type: physicochemical; details: 1-5 g in 0.05-1 dl of water at 35-40° C.; effectiveness gradually decreases
Experimental: The solution obtained according to the method above is effective for about 24 h. […] A new solution must be prepared after 24 hours as the effectiveness of the singlet oxygen in the solution has decreased below an efficient level for treatment. The solution is to be applied to the face and/or affected skin at least once daily.

[3] = tested on: patients diagnosed with moderate acne (Acne vulgaris); assay: Acne vulgaris pilot study: DLQ (Dermatology Life Quality Index) symptom rating; assay type: in vivo, human
Source text: (§1) Statistical Methods: Dropouts included in the result were 2 patients. These patients were followed up at the doctor's appointment number 2 and the results were included in the so-called “intention to treat” where the values produced two visits was the same for the coming weeks for follow-up visits. The statistical analysis used was t-test and Wilcoxon rank-sum test.
(§2) Each patient received the sodium percarbonate at home. […] This procedure was repeated daily by the patient. […] Follow-up visits occurred weekly for four weeks.
Photography: Each patient was photographed prior to initiation of treatment, and weekly for four weeks. Portrait photo is taken from the front and profile of each view of the face. Photos were taken with the same camera and camera settings and the same photographer. The same light was used by 45-degree angle. However, technology is not validated and all the photos were not taken exactly the same. Each patient was encoded by the study manager with a number. After all the photos were taken, outside observers (fellow doctor) counted the number of acne papule for each patient for each visit, without knowing the visit week during which the photo was taken. […] Results were calculated as an average of the number of acne papule for each visit at the group level. […] Even this was calculated with the average at group level. […]

[4] = tested on: patients diagnosed with moderate acne (Acne vulgaris); assay: Acne vulgaris pilot study: blinded acne papule counting from photographs; assay type: in vivo, human
Source text: A study consisted of a total of 16 patients, 2 males and 14 females. Mean age was 28±7 years. The study included men and women, previously healthy, between 18-45 years, not using contraception, not breastfeeding or pregnant, and having been diagnosed with moderate acne. Patients with ongoing treatment for acne vulgaris were excluded or treatment was withdrawn one month before the start of the study. Also, patients who could not follow instructions and who were assumed to have poor compliance were excluded.
as §1, §2
Photography: Each patient was photographed prior to initiation of treatment, and weekly for four weeks. Portrait photo is taken from the front and profile of each view of the face. Photos were taken with the same camera and camera settings and the same photographer. The same light was used by 45-degree angle. However, technology is not validated and all the photos were not taken exactly the same. Each patient was encoded by the study manager with a number. After all the photos were taken, outside observers (fellow doctor) counted the number of acne papule for each patient for each visit, without knowing the visit week during which the photo was taken. The number of acne papules was summed up by frontal view, as well as by the two side views. Results were calculated as an average of the number of acne papule for each visit at the group level. DLQ survey summed with points for each patient for each visit. Even this was calculated with the average at group level.

[5] = tested on: patients diagnosed with moderate acne (Acne vulgaris); details: four weeks of treatment
Experimental: Treatment and follow-up: On the first visit to a doctor, patients received the same information and instructions as given by the manufacturer BioCool®. Each patient received the sodium percarbonate at home. The jars of powder were unmarked but if the patient wished to know the content they were informed. All processing was done at residences of the patient by the patient. 5 ml of sodium percarbonate was dissolved in 5 ml of water at a temperature of 35-40° C. to form a solution. The solution was applied to the face using the fingers, and washed away with tap water after 5 minutes. This procedure was repeated daily by the patient. After about one hour after the treatment the subjects could, if desired, lubricate the skin with a moisturizing product, allowing enough time for the skin pores to close up for any additional product. Follow-up visits occurred weekly for four weeks. At each visit, the patient had completed the rating scale DLQ (Dermatology Life Quality Index), they were photographed and subject to an open interview.
Interview: The patient's subjective experience was investigated with a semi-structured interview based on the query field (8). The interview was conducted by research doctors. […] No recording method was used.

[6] = tested on: individuals with diabetes and neuropathy, feet with moderate to severe skin conditions; assay: Diabetic Peripheral Neuropathy foot bath study: skin condition of the feet by photos; assay type: in vivo, human; details: for Condition of the feet / skin condition, visual (photos): all patients included, daily foot bath per study protocol, 6 weeks, preliminary results
Experimental: I. Improvement in skin condition evaluated by photos according to a pre-set scale (1-5): The target population include in this evaluation are adult individuals with diabetes and neuropathy, with feet with moderate to severe skin conditions 7.1.3 Frequency of application. Daily application for 6 weeks or until the signs and symptoms are cleared, then once a week. 1. Start by placing the feet in the footbath, containing 2-3 litres (about 1 gallon) of lukewarm water (about 38° C.). Measure out 15 ml (about 1 tbs.) of granules and add to the footbath. NB! The order is important, the feet must be in the bath before adding the granules. 2. Bathe the feet for about 20 minutes This is a 6-week, single centre, open label evaluation conducted in patients suffering from Diabetic Feet of neuropathic origin with moderate to severe non ulcer pathology (dry skin, cracks, callosities) 9.2 STUDY FLOW CHART visits 0 and 6 weeks for photos, skin evaluation, test protocol and evaluation of safety and concordance At each visit a required medical evaluations is performed at inclusion (0) and 6 weeks (+/−3 days). A photograph is performed and a test protocol is followed regarding skin condition. Any local and general intercurrent events (expected or unexpected) are recorded. Patients receive a patient care diary at their first visit. Investigators are allowed to see patients more frequently if required. 11.3 EVALUATION CRITERIA Improvement of skin condition evaluated by photos analysed by independent observers

microorganisms = details: within the range of 0.5-4% of hydrogen peroxide

SMILES: COc1ccc(-c2ccc3cc(C(=O)O)ccc3c2)cc1C12CC3CC(CC(C3)C1)C2 [Adapalene]
Number of acne papules / efficacy in literature study [1]: significant reduced | Safety / tolerance in literature study [1]: safe and effective

Time the prepared solution is effective [2]: about 24 h
SMILES: O=C([O-])[O-].O=C([O-])[O-].OO.OO.OO.[Na+].[Na+].[Na+].[Na+] [Sodium percarbonate, sodium percarbonate]
DLQ symptom rating, median ([3]; after 4 weeks of daily topical treatment, interquartile range 2, p 0.002): 1.5 | DLQ symptom rating, median ([3]; before treatment (baseline), interquartile range 4): 3 | Number of acne papule over time (in words) ([4]; 4 weeks of treatment): clearly reduced; also recorded: significantly decreased | Papule count, mean ([4]; after 4 weeks of daily topical treatment (5 ml in 5 ml water, 5 minutes), SD 10.2, p <0.001 vs before): 18.3 | Papule count, mean ([4]; before treatment (baseline), 16 patients, SD 12.4): 25.4 | Time to apparent effect on the appearance of new papules ([4]; topical treatment of Acne vulgaris): ≤ 2 weeks | Patients' description of their skin in interviews [5]: cleaner, smoother, softer and firmer | Condition of the feet (photos), patient No. 01 ([6]; FIG. 4, after 6 weeks of treatment): The large crack on the right heel has significantly improved | Condition of the feet (photos), patient No. 06 ([6]; FIG. 5, before vs after treatment): the ulcer has declined in size | Condition of the feet (photos), patient No. 9 ([6]; FIG. 6, before vs after treatment): the hardened patches are no longer present | Condition of the feet / skin condition, visual (photos) [6]: significant visual improvement | Condition of the feet / skin condition, visual (photos) ([6]; listed as sodium percarbonate): significant improvement of the skin condition

SMILES: O=C(OOC(=O)c1ccccc1)c1ccccc1 [benzoyl peroxide]
Number of acne papules / efficacy in literature study [1]: significant reduced | Safety / tolerance in literature study [1]: safe and effective

SMILES: OO [hydrogen peroxide]
Number of acne papules / efficacy in literature study [1]: at least as good | Safety / tolerance in literature study [1]: better tolerance for skin | Effect on killing off microorganisms with increasing concentration (microorganisms): practically the same
